Legend:
[1] = system: Staphylococcus isolates (methicillin-sensitive and methicillin-resistant); test: Minimum inhibitory concentration assay (Example 1); type: cell-based; details: methicillin-resistant isolates
Protocol: Forty-two isolates of Staphylococcus of varying species and strain type were collected from isolate collections. Biochemical testing including coagulase, latex agglutination testing for protein A, Vogues-Proskauer tests and resistance to polymyxin B were used to identify the species of Staphylococcus. All isolates were also screened for resistance to various antimicrobials commonly used for the treatment of infections. This was performed using the disk diffusion method and resistance standards as outlined by the CLSI. The following antimicrobials were used: amoxicillin-clavulanic acid (30 μg), cephalothin (30 μg), clindamycin (2 μg), enrofloxacin (5 μg), erythromycin (15 μg), gentamicin (10 μg), imipenem (10 μg), oxacillin (1 μg), penicillin G (10 units), tetracycline (30 μg), 1:19 trimethoprim-sulfamethoxazole (25 μg) and vancomycin (30 μg).
Minimum inhibitory concentration tests were performed according to CLSI Standards (CLSI 2012). 90 μL of one of the test compound solutions, or ampicillin, was added to the end column of a 96 well plate that contained 90 μL of CAMHB in each well. The solutions were then serially diluted across the row, leaving 2 columns for positive and negative controls (FIG. 2). A bacterial suspension was prepared by adding fresh colonies obtained from an overnight culture on Sheep Blood Agar (SBA) to a 9.1 g/L saline solution. This suspension was adjusted to a concentration of between 4×10^8 and 5×10^8 CFU/mL. Concentration of the suspension was determined by measuring optical density (OD) using a spectrophotometer at a wavelength of 600 nm where the correct concentration was determined to have an optical density of between 1.00 and 1.20. 1 mL of this suspension was added to 9 mL of saline before being added to all wells, excluding the negative control wells, in 10 μL volumes giving a final concentration of between 4×10^5 and 5×10^5 CFU/mL in each well. The tests were then incubated for 24 hours at 37° C. and then assessed both visually and using OD readings from a microplate reader at a wavelength of 600 nm. These tests were performed in duplicate but repeated if discrepancies were observed.
The minimum inhibitory concentration (MIC) was determined to be the lowest concentration of antibiotic that prevented growth of bacteria both visually and using OD readings. Direct statistical comparisons between the test compounds and ampicillin could not be performed in light of confidential information restrictions, such as restrictions on disclosure of information relating to the compound structure, such as molecular weight. Instead, MIC values were collated and used to determine the lowest concentration of each compound that was effective against 50% and 90% of isolates, referred to as the MIC50 and MIC90 respectively. These values as well as the range of MIC values were then used for direct comparisons between test compounds and for general comparisons with ampicillin.

[2] = system: MRSA 9; test: Macrodilution time-kill assay; type: cell-based, Staphylococcus aureus; details: 24 hours
Protocol: Due to the detection limit of the OD measurements, the time-kill assays were also performed in macrodilution. In 15 mL tubes, 9 mL volumes of the test compounds in CAMHB were prepared at one, four and eight times the MIC concentration and 9 mL volumes of ampicillin were prepared in CAMHB at one and four times the MIC. 1 mL of a 4 to 5×10^6 bacterial suspension (as prepared for MIC testing) was added to each of the tubes as well as a growth control tube containing only 9 mL of CAMHB. These tubes were incubated at 37° C. in an orbital shaker rotating at 100 rpm for 24 hours. At 0, 1, 4, 8, 12 and 24 hours after addition of the bacteria, 100 μL samples were removed from each tube and serial diluted in 9.1 g/L saline solution. The dilutions were then plated in duplicate onto plate count agar and incubated for 24 hours at 37° C. After incubation, viable counts were obtained from the number of colonies visible on the agar and these were used to calculate the number of CFU/mL at each time point. For the macrodilution time-kill analysis, only the ATCC 49775 reference strain and MRSA 9 were assessed in order to further investigate the antibacterial activity against methicillin-resistant strains. These macrodilution time-kill assays were independently repeated and bactericidal activity was defined as a ≥3 log decrease in the number of CFU/mL.

[3] = system: ATCC 49775 reference strain; test: Microdilution time-kill assay; type: cell-based, Staphylococcus; details: for growth (optical density) compared to growth control: over a 48 hour period
Protocol: Following assessment of MIC and MBC results, two compounds were chosen for analysis using microdilution time-kill assays, LP 1369 and LP 6315 and these were compared to ampicillin. Time-kill assays were performed according to the M26-A guidelines of the CLSI, with modifications. The test compounds and ampicillin were serial diluted in CAMHB across the rows of a 96 well plate and a bacterial suspension was prepared and added in the same manner as the MIC testing. […] The time points assessed were 0, 1, 2, 4, 8, 12, 24 and 48 hours after the addition of the bacterial suspension to the wells. Each test compound was tested in triplicate while ampicillin was tested in duplicate and this test was independently repeated. The bacterial strains used for the microdilution assays were chosen based on bactericidal activity evident during MBC testing. One strain from each of the categories of Staphylococcus in the isolate collection (methicillin-sensitive, methicillin resistant and coagulase negative) were selected as well as the ATCC reference strain for comparison. These strains were strains MSS 1, MSS 11, MRSA 9 and the ATCC 49775 reference strain.

[4] = system: Staphylococcus isolates (methicillin-sensitive and methicillin-resistant); test: Minimum bactericidal concentration determination (Example 1); type: cell-based; details: for bactericidal activity (MBC testing): methicillin-sensitive and methicillin-resistant strains
Protocol: Following determination of the MIC using the 96 well MIC plate, a variation of the drop plate method was used to determine minimum bactericidal concentration (MBC) for each of the test compounds. These were analysed using samples taken from the MIC plate following incubation. For each compound, a 10 μL drop of each concentration equal to or higher than the MIC was pipetted onto Sheep Blood Agar in a clockwise manner (FIG. 3). Each concentration was pipetted in duplicate with duplicates being pipetted on an inner ring of drops. The plates were incubated at 37° C. overnight and assessed the following day for growth. The MBC was defined as the concentration at which 99.9% of colonies were eradicated, which was visually assessed by a lack of growth on the agar where the drop was placed. […] The MBC values for 50% and 90% of the isolates (MBC50 and MBC90) were calculated and assessed along with the MBC range in order to select compounds for further study.

Row | Compound | MIC50 and MIC90 values compared with ampicillin [1] | bactericidal or bacteriostatic (>=3 log decrease in CFU/mL = bactericidal) ([2]; LP 6315: most concentrations) | decrease in colonies ([2]; four times the MIC) [log10] | growth at the MIC ([3]; at the MIC, 48 hours) | growth (optical density) compared to growth control [3] | strains against which bactericidal activity was exhibited more consistently [4] | MBC50 (rank among test compounds) ([4]; methicillin-resistant isolates) | bactericidal activity (MBC testing) [4] | decrease in the number of viable bacteria ([2]; all concentrations tested) [log10] | MBC50 (rank among test compounds) ([4]; methicillin-sensitive isolates)
1 | CO[C@@H]1[C@@H](OC)[C@H](C)[C@@](O)(CC(=O)O)O[C@H]1[C@H](C)[C@H]1O[C@@]2(CC[C@@](C)([C@H]3CC[C@@](C)([C@@H]4O[C@@H]([C@H]5O[C@](C)(O)[C@H](C)C[C@@H]5C)C[C@@H]4O[C@@H]4C[C@H](OC)[C@@H](OC)[C@H](C)O4)O3)O2)C[C@H](O)[C@H]1C.N [LP 6315, Maduramicin] | considerably lower than ampicillin | bacteriostatic | > 3 | Some growth was observed after 48 hours | prevented the growth | methicillin-sensitive strains | lowest MBC50 values | some bactericidal activity in lower concentrations | – | –
2 | CC[C@@H](C(=O)[C@@H](C)[C@@H](O)[C@H](C)CCc1ccc(C)c(O)c1C(=O)O)[C@H]1O[C@](CC)([C@H]2CC[C@](O)(CC)[C@H](C)O2)C[C@@H]1C [LP 1369, Lasalocid] | considerably lower than ampicillin | – | – | – | prevented the growth | methicillin-sensitive strains | – | some bactericidal activity in lower concentrations | < 3 | lowest MBC50 values

From patent US11491105B2, “Methods of treating microbial infections, including mastitis” (priority 2013, dated 2022)
